ChEMBL document CHEMBL3091384, “Chemical probes to study ADP-ribosylation: synthesis and biochemical evaluation of inhibitors of the human ADP-ribosyltransferase ARTD3/PARP3” (J Med Chem, 2013)

Assays:
[1] = target: T1, Poly [ADP-ribose] polymerase 1 (Homo sapiens, UniProt P09874)
[2] = test system: Poly [ADP-ribose] polymerase 14, ARTD8/PARP14 (Homo sapiens)
Homo sapiens = species on record: Homo sapiens; assay: Binding affinity to […] (unknown origin) assessed as change in melting temperature by thermal stabilization assay
[3] = target: T1, Poly [ADP-ribose] polymerase 1; remark: listed apart in the source
[4] = target: Poly [ADP-ribose] polymerase 2 (Homo sapiens) (UniProt Q9UGN5)
Chain of Poly [ADP-ribose] polymerase 2 (Homo sapiens) (Q9UGN5 whole entry): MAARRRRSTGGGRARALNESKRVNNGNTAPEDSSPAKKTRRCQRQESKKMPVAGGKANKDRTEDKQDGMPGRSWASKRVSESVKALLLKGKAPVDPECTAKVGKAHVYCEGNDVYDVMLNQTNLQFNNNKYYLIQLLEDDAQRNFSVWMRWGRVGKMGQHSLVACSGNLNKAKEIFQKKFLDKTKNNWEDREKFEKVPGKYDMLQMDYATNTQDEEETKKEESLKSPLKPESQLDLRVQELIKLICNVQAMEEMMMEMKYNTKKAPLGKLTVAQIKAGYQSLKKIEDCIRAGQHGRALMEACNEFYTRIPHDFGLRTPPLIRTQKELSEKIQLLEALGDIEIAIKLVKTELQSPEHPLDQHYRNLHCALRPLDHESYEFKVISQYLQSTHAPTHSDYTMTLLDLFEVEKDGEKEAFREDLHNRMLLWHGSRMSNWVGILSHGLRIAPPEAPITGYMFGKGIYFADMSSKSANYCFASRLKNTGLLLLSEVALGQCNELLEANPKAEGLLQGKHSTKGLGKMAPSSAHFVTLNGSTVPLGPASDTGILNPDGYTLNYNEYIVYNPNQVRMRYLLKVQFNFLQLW

T1 sequence (P09874 whole entry): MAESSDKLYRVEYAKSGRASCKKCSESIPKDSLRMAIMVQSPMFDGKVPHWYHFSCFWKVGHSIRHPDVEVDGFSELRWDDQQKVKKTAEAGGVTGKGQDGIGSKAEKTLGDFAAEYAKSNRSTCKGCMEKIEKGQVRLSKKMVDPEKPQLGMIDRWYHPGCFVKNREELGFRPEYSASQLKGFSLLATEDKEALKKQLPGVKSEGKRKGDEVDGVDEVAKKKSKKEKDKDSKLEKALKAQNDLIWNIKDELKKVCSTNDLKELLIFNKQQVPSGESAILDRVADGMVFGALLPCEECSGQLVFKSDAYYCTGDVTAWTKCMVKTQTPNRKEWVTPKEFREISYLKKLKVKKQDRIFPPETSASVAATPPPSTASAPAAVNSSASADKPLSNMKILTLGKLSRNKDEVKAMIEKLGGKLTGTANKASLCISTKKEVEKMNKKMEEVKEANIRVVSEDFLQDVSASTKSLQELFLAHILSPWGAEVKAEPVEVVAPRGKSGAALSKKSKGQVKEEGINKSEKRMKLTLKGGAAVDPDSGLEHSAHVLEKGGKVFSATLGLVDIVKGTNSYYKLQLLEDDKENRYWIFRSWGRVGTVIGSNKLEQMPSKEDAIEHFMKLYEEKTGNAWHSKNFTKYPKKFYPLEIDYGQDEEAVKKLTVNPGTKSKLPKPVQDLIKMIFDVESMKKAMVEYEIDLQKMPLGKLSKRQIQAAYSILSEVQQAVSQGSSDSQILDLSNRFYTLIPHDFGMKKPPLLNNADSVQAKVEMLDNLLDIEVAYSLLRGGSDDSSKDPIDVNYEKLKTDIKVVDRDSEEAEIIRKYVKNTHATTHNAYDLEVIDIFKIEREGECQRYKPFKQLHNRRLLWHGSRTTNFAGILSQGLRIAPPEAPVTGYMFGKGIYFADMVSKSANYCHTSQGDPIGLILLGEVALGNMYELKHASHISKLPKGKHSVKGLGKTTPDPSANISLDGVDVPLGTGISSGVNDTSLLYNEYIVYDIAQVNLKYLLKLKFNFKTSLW

Structure (SMILES)	IC50 [1] [µM]	ΔTm [2] [°C]	ΔTm (Homo sapiens) [°C]	ΔTm [3] [°C]	ΔTm [4] [°C]
O=C(CCc1nc2ccccc2c(=O)[nH]1)N[C@H]1CCc2ccccc21	0.51	0.18	0.84	2.38	1.39
O=C(CCc1nc2ccccc2c(=O)[nH]1)N[C@@H]1CCc2ccccc21	0.78	0.1	0.8	2.37	1.92
